For the assay, the target named is T1, rhlegumain (hLGMN(V18-Y433)_VD-8xHis-S2-r) (Homo sapiens, UniProt Q99538).
T1 construct: construct name: hLGMN(V18-Y433)_VD-8xHis-S2-r; VD linker (C); 8xHis (C); made in house
T1 sequence (Q99538 26-323 limits assumed): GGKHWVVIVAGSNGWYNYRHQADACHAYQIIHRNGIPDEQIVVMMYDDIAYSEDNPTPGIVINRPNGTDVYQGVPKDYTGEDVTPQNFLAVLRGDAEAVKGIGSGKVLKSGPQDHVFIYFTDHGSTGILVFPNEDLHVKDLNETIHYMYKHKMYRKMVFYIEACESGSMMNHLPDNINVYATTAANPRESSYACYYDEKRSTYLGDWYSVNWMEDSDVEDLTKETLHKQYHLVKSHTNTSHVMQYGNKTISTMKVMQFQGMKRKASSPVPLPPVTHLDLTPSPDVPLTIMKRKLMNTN
In words: AEP activity enzymatic assay. The class given is biochemical. Here is the method: Prior to the assay measurements, rhlegumain (in house, construct name: hLGMN(V18-Y433)_VD-8xHis-S2-r) is activated by diluting it from 1.1 mg/ml to 0.1 mg/ml (11-fold) in activation buffer (50 mM sodium acetate, 100 mM NaCl, pH 4.0) and incubation at 37° C. for 2 h. The activated enzyme solution stock is stored at −80° C.

The mark [1] stands for this setting: 0.5 nM legumain, 0.5 uM Z-Ala-Ala-Asn-Rh110-(D-Pro), pH 5.8, 30 min preincubation at 25° C., read-out: IC50 (AEP).

pIC50: −log10 of the molar value. Where two headings read alike, the source gives them in different places.

For the compound `NC(=O)CN(NC(=O)[C@@H]1CCCN1C(=O)C1(c2ccc(Cl)cc2)CC1)C(=O)CF` [Example 6, 2-[(2-Fluoroacetyl)-[[(2S)-1-[1-(4-Chlorophenyl)Cyclopropanecarbonyl]Pyrrolidine-2-Carbonyl]Amino]Amino]Acetamide], the pIC50 is 8.57.

`NC(=O)CN(NC(=O)[C@@H]1CCCN1C(=O)Cc1ccccc1)C(=O)CF` [Example 5, 2-[(2-Fluoroacetyl)-[[(2S)-1-(2-Phenylacetyl)Pyrrolidine-2-Carbonyl]Amino]Amino]Acetamide] gave a pIC50 of 7.65.

`NC(=O)CN(NC(=O)[C@@H]1CCCN1C(=O)C1(c2ccc(Cl)cc2)CCC1)C(=O)CF` [Example 4, 2-[(2-Fluoroacetyl)-[[(2S)-1-[1-(4-Chlorophenyl)Cyclobutanecarbonyl]Pyrrolidine-2-Carbonyl]Amino]Amino]Acetamide] had a pIC50 of 8.89. In turn, `NC(=O)CN(NC(=O)[C@@H]1CCCN1C(=O)CCc1ccccc1)C(=O)CF` [Example 2, 2-[(2-Fluoroacetyl)-[[(2S)-1-(3-Phenylpropanoyl)Pyrrolidine-2-Carbonyl]Amino]Amino]Acetamide] showed a pIC50 of 7.14. `NC(=O)CN(NC(=O)[C@@H]1CCCN1S(=O)(=O)c1ccccc1)C(=O)CF` [Example 7, 2-[(2-Fluoroacetyl)-[[(2S)-1-(Benzenesulfonyl)Pyrrolidine-2-Carbonyl]Amino]Amino]Acetamide] had a pIC50 of 7.21. As to `NC(=O)CN(NC(=O)[C@@H]1CCCN1S(=O)(=O)Cc1ccccc1)C(=O)CF` [Example 9, 2-[(2-Fluoroacetyl)-[[(2S)-1-Benzylsulfonylpyrrolidine-2-Carbonyl]Amino]Amino]Acetamide], the pIC50 was 7.08. Take `NC(=O)CN(NC(=O)[C@@H]1CCCN1C(=O)C(F)(F)c1ccccc1)C(=O)CF` [Example 1, 2-[(2-Fluoroacetyl)-[[(2S)-1-(2,2-Difluoro-2-Phenyl-Acetyl)Pyrrolidine-2-Carbonyl]Amino]Amino]Acetamide]: the pIC50 is 8.44. In turn, `C#Cc1ccc(C2(C(=O)N3CCC[C@H]3C(=O)NN(CC(N)=O)C(=O)CF)CC2)cc1` [Example 11, 2-[(2-Fluoroacetyl)-[[(2S)-1-[1-(4-Ethynylphenyl)Cyclopropanecarbonyl]Pyrrolidine-2-Carbonyl]Amino]Amino]Acetamide] had a pIC50 of 8.92.

`NC(=O)CN(NC(=O)[C@@H]1CCCN1S(=O)(=O)CCc1ccccc1)C(=O)CF` [Example 10, 2-[(2-Fluoroacetyl)-[[(2S)-1-(2-Phenylethylsulfonyl)Pyrrolidine-2-Carbonyl]Amino]Amino]Acetamide] had a pIC50 of 7.47.

Compound `NC(=O)CN(NC(=O)[C@@H]1CCCN1C(=O)C1(c2ccccc2)CC1)C(=O)CF` [Example 8, 2-[(2-Fluoroacetyl)-[[(2S)-1-(1-Phenylcyclopropanecarbonyl)Pyrrolidine-2-Carbonyl]Amino]Amino]Acetamide] had a pIC50 of 8.30.

Consider `COc1ccc(-c2ccc(S(=O)(=O)N3CCC[C@H]3C(=O)NN(CC(N)=O)C(=O)CCl)cc2)cc1` [Example 17, 2-[(2-Chloroacetyl)-[[(2S)-1-[4-(4-Methoxyphenyl)Phenyl]Sulfonylpyrrolidine-2-Carbonyl]Amino]Amino]Acetamide], for which the pIC50 under setting [1] is 9.52.

Take `COc1ccc(-c2ccc(S(=O)(=O)N3CCC[C@H]3C(=O)NN(CC(N)=O)C(=O)CF)cc2)cc1` [Example 13, 2-[(2-Fluoroacetyl)-[[(2S)-1-[4-(4-Methoxyphenyl)Phenyl]Sulfonylpyrrolidine-2-Carbonyl]Amino]Amino]Acetamide]: the pIC50 under setting [1] is 8.82.

Regarding `C#CCOc1ccc(C2(C(=O)N3CCC[C@H]3C(=O)NN(CC(N)=O)C(=O)CF)CC2)cc1` [Example 14, 2-[(2-Fluoroacetyl)-[[(2S)-1-[1-(4-Prop-2-Ynoxyphenyl)Cyclopropanecarbonyl]Pyrrolidine-2-Carbonyl]Amino]Amino]Acetamide], the pIC50 is 8.85. As to `NC(=O)CN(NC(=O)[C@@H]1CCCN1C(=O)C1(c2ccccc2)CCC1)C(=O)CF` [Example 3], the pIC50 was 8.44.

The values above are taken from patent publication US20240217928A1, “HALOACETHYDRAZIDES USEFUL AS AEP INHIBITORS” (Hoffmann-La Roche Inc., priority 2021, published 2024).
